Results from publication PMC12249663, “Identification and Screening of Novel Antioxidant Peptides from Yak Skin and Their Protective Effect on H2O2-Induced HepG2 Cells Oxidation” (International Journal of Molecular Sciences, 2025).
Read-outs that look alike come from different tables or passages of the source.

Key:
HepG2 cells = conditions: 2 h, CCK-8, mean ± SD
Procedure: HepG2 cells were cultured in 96-well plates at a density of 5 × 10^4 cells/mL for 24 h. After the medium was removed, 100 µL of complete medium containing different concentrations of H2O2 (800, 1000, 1200, 1400, 1600 µM) was added and incubated for 2 h. After the medium was discarded, cell viability was determined using the CCK-8 assay to establish the optimal H2O2 concentration for inducing an oxidative stress model. The cells without H2O2 treatment were used as control group.

[1] = DPPH radical scavenging activity; format: biochemical; conditions: 100 μL sample + 100 μL 0.1 mmol/L DPPH in anhydrous ethanol, 30 min dark, room temperature, absorbance 517 nm; sample concentration not given; mean ± SD, at least three repeats
Procedure: Slightly modified according to the previous method, the 100 μL sample solution was mixed with 100 μL 0.1 mmol/L DPPH anhydrous ethanol solution and reacted in the dark at room temperature for 30 min. Then the absorbance was measured at 517 nm. The DPPH free radical scavenging rate of the sample was calculated by the formula below.(1) DPPH radical scavenging rate(%)=(1−A1−A2/A0)×100, where A1 represented the absorbance value the sample reaction with DPPH anhydrous ethanol solution; A2 represented the absorbance value of the sample’s reaction with anhydrous ethanol solution; A0 represented the absorbance of the reaction mixture solution without the sample.

[2] = ABTS radical scavenging activity; format: biochemical; conditions: 40 μL sample + 160 μL ABTS working solution, 10 min dark, room temperature, absorbance 734 nm; sample concentration not given; mean ± SD, at least three repeats
Procedure: Slightly modified according to the previous method, 7.4 mmol/L ABTS solution was mixed with the 2.6 mmol/L K2S2O8 solution in equal volume, and then was kept in the dark for 16 h. The ABTS working solution was obtained when the mixture was subsequently diluted with anhydrous ethanol to adjust the absorbance to a range of 0.70 ± 0.02 at 734 nm. Then, the sample solution of 40 μL was mixed with 160 μL ABTS working solution and reacted at room temperature for 10 min in the dark on 96 microporous plates. Meanwhile, the sample was replaced with distilled water as the blank. The absorbance was measured at 734 nm, and the ABTS radical scavenging rate of samples was calculated using the formula below.(2) ABTS radical scavenging rate(%)=[…], where A0 and A1 represented the absorbance values of the blank and sample groups.

[3] = Hydroxyl radical scavenging activity; format: biochemical; conditions: salicylic acid / FeSO4 / H2O2 6.0 mmol/L, 37 °C, 0.5 h, absorbance 510 nm; sample concentration not given; mean ± SD, at least three repeats
Procedure: The hydroxyl radical scavenging activities of samples were performed as in the previous method with slight modifications. Briefly, 6.0 mmol/L salicylic acid solution and FeSO4 solution were prepared, and 0.5 mL of each solution was added into a reaction tube, followed by the addition of a 0.5 mL sample solution and a 0.5 mL H2O2 solution of 6.0 mmol/L. After mixing, the reaction was conducted in a 37 °C water bath for 0.5 h, and then the absorbance was measured at 510 nm. Meanwhile, the sample was replaced with distilled water and used as the blank group, and H2O2 was replaced with distilled water and used as the control group. The hydroxyl radical scavenging rate of the sample was calculated according to the formula below.(3) hydroxyl radical scavenging rate(%)=(1-A0−A1/A)×100, where A0, A1, and A represented the absorbance values of the sample group, blank group, and control group, respectively.

H2O2-induced HepG2 cells [4] = assay: SOD activity in H2O2-induced HepG2 cells (kit); format: cell-based; conditions: for activity of SOD compared with the model group: peptide pretreatment, H2O2-induced HepG2 cells, p < 0.05
Procedure: (§1) After the medium was discarded, 100 μL peptides of different concentrations were added to the wells and cultured for an additional 24 h. After discarding the medium and then being washed, the cells were incubated with 100 μL of an appropriate concentration of H2O2. After incubation for 2 h, the supernatant was collected, and the content of IL-8 was determined strictly, according to the kit instructions. Afterwards, the cells were washed twice with PBS, and then the cell viability was measured. Alternatively, the cells were disrupted with 300 μL of cell lysate and centrifuged at 6000× g at 4 °C for 15 min. The supernatant was collected and stored at −80 °C. The protein concentration was determined using the Bio-Rad DC analysis with BSA as the standard curve. In addition, the contents of SOD, CAT, and MDA in cell lysates were determined in strict accordance with the kit instructions.

H2O2-induced HepG2 cells [5] = assay: CAT activity in H2O2-induced HepG2 cells (kit); format: cell-based; conditions: for activity of CAT compared with the model group: peptide pretreatment, H2O2-induced HepG2 cells, p < 0.05
Procedure: as §1

H2O2-induced HepG2 cells [6] = assay: MDA content in H2O2-induced HepG2 cells (kit); format: cell-based; conditions: peptide pretreatment 24 h, then 1.4 mM H2O2 2 h; cell lysate; mean ± SD; model group 10.31 ± 0.23
Procedure: as §1

H2O2-induced HepG2 cells [7] = assay: IL-8 content in H2O2-induced HepG2 cells (ELISA kit); format: cell-based; conditions: peptide pretreatment 24 h, then 1.4 mM H2O2 2 h; supernatant; p < 0.05; model group 154.02 ± 2.80 pg/mL
Procedure: as §1

| Molecule | cell viability (HepG2 cells; H2O2 0.8 µM) | cell survival rate (HepG2 cells; H2O2 1.4 mM) | cell viability (HepG2 cells; H2O2 1.6 mM) | DPPH radical scavenging rate [1] | ABTS radical scavenging rate [2] | hydroxyl radical scavenging rate [3] | activity of SOD in cells (H2O2-induced HepG2 cells [4]; peptide pretreatment 24 h, then 1.4 mM H2O2 2 h, cell lysate, mean ± SD, model group 6.17 ± 0.41, control 14.35 ± 0.06) | activity of SOD compared with the model group (H2O2-induced HepG2 cells [4]) | activity of CAT in cells (H2O2-induced HepG2 cells [5]; peptide pretreatment 24 h, then 1.4 mM H2O2 2 h, cell lysate, mean ± SD, model group 26.01 ± 1.78, control 60.80 ± 1.10) | activity of CAT compared with the model group (H2O2-induced HepG2 cells [5]) | MDA content (H2O2-induced HepG2 cells [6]) | intracellular IL-8 content compared with the model group (H2O2-induced HepG2 cells [7]) |
| --- | --- | --- | --- | --- | --- | --- | --- | --- | --- | --- | --- | --- |
| OO [H2O2, hydrogen peroxide] | 91.77 ± 4.53% | 51.29 ± 3.06% | 37.01 ± 3.20% | – | – | – | – | – | – | – | – | – |
| FGFDGDF [Phe-Gly-Phe-Asp-Gly-Asp-Phe, antioxidant peptide identified from yak skin hydrolysate YSP-I, synthesized] | – | – | – | 25.80% ± 1.82% | 19.15% ± 1.59% | 44.44% ± 1.94% | 11.83 ± 0.16 U/mg prot | significantly more improved | 47.49 ± 1.14 U/mg prot | significantly more improved | 3.945 ± 0.21 nmol/mg prot | significantly reduced |
| GFDGD [Gly-Phe-Asp-Gly-Asp, antioxidant peptide identified from yak skin hydrolysate YSP-I, synthesized] | – | – | – | – | – | 41.61% ± 1.73% | – | significantly more improved | – | significantly more improved | 5.55 ± 0.16 nmol/mg prot | significantly reduced |
| GHNGLDGL [Gly-His-Asn-Gly-Leu-Asp-Gly-Leu, antioxidant peptide identified from yak skin hydrolysate YSP-I, synthesized] | – | – | – | – | – | – | – | significantly more improved | – | significantly more improved | 4.65 ± 0.39 nmol/mg prot | significantly reduced |
| GPAGPQGPR [Gly-Pro-Ala-Gly Pro-Gln-Gly-Pro-Arg, antioxidant peptide identified from yak skin hydrolysate YSP-I, synthesized] | – | – | – | – | – | – | – | significantly more improved | – | significantly more improved | 5.96 ± 0.30 nmol/mg prot | significantly reduced |
| LMGPR [Leu-Met-Gly-Pro-Arg, antioxidant peptide identified from yak skin hydrolysate YSP-I, synthesized] | – | – | – | 23.56% ± 2.68% | – | – | – | significantly more improved | – | significantly more improved | 5.91 ± 0.27 nmol/mg prot | significantly reduced |
